Laboratory results reported in publication PMC7483518, “Destabilizing single chain major histocompatibility complex class I protein for repurposed enterokinase proteolysis” (Scientific Reports, 2020).
Where “and” joins values, the source holds several entries; their conditions need not be identical. Equal entries are not always repeated. Where two headings read alike, the source gives them in different places.

Tests used:
[1] = test system: HLA-A*11:01 single chain protein; format: biochemical, Human; set-up: EZ50kDa / EZ50kD (pH 6.2) / EZ50kD (pH 8) / EZ50kD (normalised: EBV1101 = 1, EBV0201 = 0) / EZ50kDa rank: unit not given beside the values; details: for EZ50kDa: Table 3, EGFR peptide library (n = 177, duplicated), 14 h;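 as to EZ50kD (pH 6.2): scaled with positive control peptide as 1 and negative control peptide as 0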;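 as to EZ50kDa: intact 50 kDa band volume scaled with positive control peptide as 1 and negative as 0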
[2] = biological target: photolabile unchained HLA-A*11:01 pMHC-I protein (Homo sapiens, UniProt P04439, A114D/D185E/E176A/F33Y/L180Q/S129P/T187R); experiment: ELISA with photolabile unchained pMHC-I protein and UV irradiation; format: binding
[3] = EASY MHC-I A*11:01, 2019-07-26, mean of the 2 replicates
[4] = EASY MHC-I A*11:01, 2019-08-01, mean of the 2 replicates
[5] = EASY MHC-I A*11:01, run 2019-08-06, 5min, mean of 2 replicates
[6] = EASY MHC-I A*11:01, run 2019-08-07, 5min, mean of 2 replicates
[7] = EASY MHC-I A*11:01, run 2019-08-08, 5min, mean of 2 replicates
[8] = EASY MHC-I A*11:01, gel 2019-07-17 lr1028-1036 5min, mean of 2 replicates
[9] = EASY MHC-I A*11:01, gel 2019-07-17 lr1028-1036 5min, replicate 1 (lanes 1-14)
[10] = EASY MHC-I A*11:01, gel 2019-07-17 lr1028-1036 5min, replicate 2 (lanes 15-28)
[11] = pH 6.2, 37 °C, enterokinase, Eq. (4)
[12] = EASY MHC-I A*11:01, 2019-07-25, mean of the 2 replicates

## IKTSPKANKEI [EX1020]
[1]; [3]
  EZ_mean: -0.1313
[2]; ELISA signal, mean, […]
  EASY_mean: -0.02309

## IKTSPKANKEIL [EX1028]
[1]; [4]
  EZ_mean: -0.1371
[2]
  EASY_mean: -0.02595

## IMQLMPFG [TM1007]
[1]; [5]
  EZ_mean: -0.09302
[2]; ELISA signal, mean, […]
  EASY_mean: -0.02903

## IMQLMPFGC [TM1016]
[1]; [6]
  EZ_mean: -0.08902
[2]; […], mean, STDEV
  EASY_mean: -0.02516

## IMQLMPFGCL [TM1026]
[1]; [7]
  EZ_mean: -0.06176
  Norm_mean: -0.05556
[2]; ELISA signal, mean, […]
  EASY_mean: -0.02435

## IMQLMPFGCLL [TM1037]
[1]
  EZ_mean: -0.1199
[2]; ELISA signal, mean, […]
  EASY_mean: -0.05375

## IMQLMPFGCLLD [TM1049]
[1]
  EZ_mean: -0.08186
[2]
  EASY_mean: -0.01469

## IPVAIKTSPKA [EX1016]
[1]; [3]
  EZ_mean: -0.1024
[2]; […], mean, STDEV
  EASY_mean: -0.002293

## IPVAIKTSPKAN [EX1024]
[1]; [4]
  EZ_mean: -0.1301
[2]
  EASY_mean: -0.02211

## ITDFGRAKLL [LR1022]
[1]
  EZ_mean: -0.0609
[2]; […], mean, STDEV
  EASY_mean: -0.02159

## ITDFGRAKLLG [LR1033]
[1]; [8]
  EZ_mean: -0.04472
[1]; [9]
  EZ50kD (normalised: EBV1101 = 1, EBV0201 = 0): -0.05531
  Norm (50 kDa band adj. volume normalised: Undig_37C = 1, Dig_37C = 0): -0.05765
[1]; [10]
  EZ50kD (normalised: EBV1101 = 1, EBV0201 = 0): -0.03414
  Norm (50 kDa band adj. volume normalised: Undig_37C = 1, Dig_37C = 0): -0.02949
[2]
  EASY_mean: -0.04357

## ITDFGRAKLLGA [LR1045]
[1]
  EZ_mean: -0.0656
[2]
  EASY_mean: -0.00307

## ITQLMPFGS [CS1009]
[1]
  EZ_mean: -0.06498
[2]
  EASY_mean: -0.02581

## ITQLMPFGSL [CS1019]
[1]
  EZ_mean: -0.0702
[2]
  EASY_mean: -0.007918

## ITQLMPFGSLLD [CS1042]
[1]
  EZ_mean: -0.03951
[2]
  EASY_mean: -0.01907

## KIPVAIKTSPKA [EX1023]
[1]; [4]
  EZ_mean: -0.1135
[2]
  EASY_mean: -0.01234

## KITDFGRA [LR1002]
[1]
  EZ_mean: -0.03733
[2]; […], mean, STDEV
  EASY_mean: -0.007222

## KITDFGRAKL [LR1021]
[1]
  EZ_mean: -0.05252
[2]; […], mean, STDEV
  EASY_mean: -0.0154

## KITDFGRAKLL [LR1032]
[1]; [8]
  EZ_mean: 0.03523
[1]; [9]
  EZ50kD (normalised: EBV1101 = 1, EBV0201 = 0): 0.01844
  Norm (50 kDa band adj. volume normalised: Undig_37C = 1, Dig_37C = 0): -0.01259
[1]; [10]
  EZ50kD (normalised: EBV1101 = 1, EBV0201 = 0): 0.05201
  Norm (50 kDa band adj. volume normalised: Undig_37C = 1, Dig_37C = 0): 0.03105
[1]; [11]
  EZ50kDa: 0.0352 ± 0.024
[2]
  EASY_mean: 0.009234

## KITDFGRAKLLG [LR1044]
[1]
  EZ50kD (normalised: EBV1101 = 1, EBV0201 = 0): 0.1471 and 0.1891
  EZ_mean: 0.1681
  Norm (50 kDa band adj. volume normalised: Undig_37C = 1, Dig_37C = 0): 0.1017 and 0.1364
[1]; [11]
  EZ50kDa: 0.2 and 0.168 ± 0.030
[2]
  EASY_mean: 0.1191

## KTSPKANK [EX1003, EGFR exon 19 deletion-derived peptide]
[1]
  EZ_mean: 0.03406
[1]; [11]
  EZ50kDa: 0.0341 ± 0.022
[2]
  EASY_mean: 0.02773

## KTSPKANKE [EX1008]
[1]; [12]
  EZ_mean: -0.03131
[2]; […], mean, STDEV
  EASY_mean: -0.00166

## KTSPKANKEI [EX1014]
[1]; [3]
  EZ_mean: -0.1022
[2]; […], mean, STDEV
  EASY_mean: -0.002118

## KTSPKANKEIL [EX1021]
[1]; [3]
  EZ_mean: -0.102
[2]; […], mean, STDEV
  EASY_mean: -0.001833

## KTSPKANKEILD [EX1029]
[1]; [4]
  EZ_mean: -0.1385
[2]
  EASY_mean: -0.02661

## LIMQLMPF [TM1006]
[1]; [5]
  EZ_mean: -0.09815
[2]; […], mean, STDEV
  EASY_mean: -0.03127

## LIMQLMPFG [TM1015]
[1]; [6]
  EZ_mean: -0.1155
[2]; […], mean, STDEV
  EASY_mean: -0.03975

## LIMQLMPFGC [TM1025]
[1]; [7]
  EZ_mean: -0.05365
  Norm_mean: -0.04493
[2]; ELISA signal, mean, […]
  EASY_mean: -0.02724

## LIMQLMPFGCL [TM1036]
[1]
  EZ_mean: -0.1248
[2]; ELISA signal, mean, […]
  EASY_mean: -0.07162

## LIMQLMPFGCLL [TM1048]
[1]
  EZ_mean: -0.1103
[2]
  EASY_mean: -0.04956

## LITQLMPFGS [CS1018]
[1]
  EZ_mean: -0.05783
[2]
  EASY_mean: 0.007236

## LITQLMPFGSL [CS1029]
[1]
  EZ_mean: -0.07478
[2]
  EASY_mean: -0.02804

## LMPFGSLL [CS1003]
[1]
  EZ_mean: -0.06827
[2]
  EASY_mean: 0.002317

## LMPFGSLLD [CS1012, probably meant CS1032]
[1]
  EZ_mean: -0.06046
[1]; Fig. 2f,g, EGFR peptide library
  EZ MHC-I stability with HLA-A*11:01 single chain protein: strongly stabilizing
[2]
  EASY_mean: -0.02081

## LMPFGSLLDY [CS1022]
[1]
  EZ_mean: -0.05808
[2]
  EASY_mean: 0.006828

## LMPFGSLLDYV [CS1033]
[1]
  EZ_mean: -0.06309
[2]
  EASY_mean: -0.01373

## LTSTVQLIM [TM1009]
[1]; [5]
  EZ_mean: -0.1009
[2]; […], mean, STDEV
  EASY_mean: -0.03424

## LTSTVQLIMQ [TM1019]
[1]; [7]
  EZ_mean: -0.0385
  Norm_mean: -0.02611
[2]; […], mean, STDEV
  EASY_mean: -0.02206

## LTSTVQLIMQL [TM1030]
[1]
  EZ_mean: -0.07795
[2]; […], mean, STDEV
  EASY_mean: -0.03337

## LTSTVQLIMQLM [TM1041]
[1]
  EZ_mean: -0.1142
[2]; […], mean, STDEV
  EASY_mean: -0.04948

## MPFGSLLD [CS1004]
[1]
  EZ_mean: -0.07336
[2]
  EASY_mean: -0.003998

## MPFGSLLDY [CS1013]
[1]
  EZ_mean: -0.0684
[2]
  EASY_mean: -0.03532

## MPFGSLLDYV [CS1023]
[1]
  EZ_mean: -0.04531
[2]
  EASY_mean: 0.02198

## MPLGSLLDYVR [CS1034]
[1]
  EZ_mean: -0.06141
[2]
  EASY_mean: -0.006346

## MQLMPFGC [TM1008]
[1]; [5]
  EZ_mean: -0.09972
[2]; ELISA signal, mean, […]
  EASY_mean: -0.0333

## MQLMPFGCL [TM1017]
[1]; [6]
  EZ_mean: -0.1037
[2]; […], mean, STDEV
  EASY_mean: -0.03322

## MQLMPFGCLLD [TM1038]
[1]
  EZ_mean: -0.125
[2]; ELISA signal, mean, […]
  EASY_mean: -0.0584

## NTLEQTVKK [reference compound]
[1]; Table 2, pH 6.2, 37 °C, enterokinase, Eq. (4), instability cutoff < 0.3
  EZ50kD (pH 6.2): 0.5647
[2]; Table 2, 62.5 nM photolabile pMHC-I mixture, 5 μM peptide in PBS, UV 365 nm 2 × 5 min on ice, 2 h room temperature on anti-β2m plate, Abs450nm − Abs570nm, instability cutoff < 0.6
  ELISA450nm: 1.631

## PFGSLLDY [CS1005]
[1]
  EZ_mean: -0.07269
[2]
  EASY_mean: -0.004417

## PFGSLLDYVR [CS1024]
[1]
  EZ_mean: -0.007587
[2]
  EASY_mean: 0.06666

## PVAIKTSPKA [EX1010]
[1]; [12]
  EZ_mean: -0.04257
[2]; […], mean, STDEV
  EASY_mean: -0.007707

## PVAIKTSPKAN [EX1017]
[1]; [3]
  EZ_mean: -0.1176
[2]; ELISA signal, mean, […]
  EASY_mean: -0.01335

## PVAIKTSPKANK [EX1025]
[1]; [4]
  EZ_mean: -0.1057
[2]
  EASY_mean: -0.00741

## QLIMQLMP [TM1005]
[1]; [5]
  EZ_mean: -0.1114
[2]; ELISA signal, mean, […]
  EASY_mean: -0.03905

## QLIMQLMPF [TM1014]
[1]; [6]
  EZ_mean: -0.09931
[2]; […], mean, STDEV
  EASY_mean: -0.03038

## QLIMQLMPFG [TM1024]
[1]; [7]
  EZ_mean: -0.01105
  Norm_mean: 0.009219
[2]; ELISA signal, mean, […]
  EASY_mean: -0.01897

## QLIMQLMPFGC [TM1035]
[1]
  EZ_mean: -0.1197
[2]; ELISA signal, mean, […]
  EASY_mean: -0.06893

## QLIMQLMPFGCL [TM1047]
[1]
  EZ_mean: -0.1111
[2]
  EASY_mean: -0.05287

## QLITQLMPFGS [CS1028]
[1]
  EZ_mean: -0.07904
[2]
  EASY_mean: -0.02964

## QLITQLMPFGSL [CS1040]
[1]
  EZ_mean: -0.03735
[2]
  EASY_mean: -0.0163

## QLMPFGSLLD [CS1021]
[1]
  EZ_mean: -0.06288
[2]
  EASY_mean: 0.0006677

## RAKLLGAE [LR1008]
[1]
  EZ_mean: -0.05335
[2]; […], mean, STDEV
  EASY_mean: -0.01564

## RAKLLGAEE [LR1017]
[1]
  EZ_mean: -0.04971
[2]; […], mean, STDEV
  EASY_mean: -0.0266

## RAKLLGAEEKE [LR1038]
[1]
  EZ_mean: -0.07295
[2]
  EASY_mean: -0.00823

## RAKLLGAEEKEY [LR1050]
[1]
  EZ_mean: 0.007797
[2]
  EASY_mean: 0.01434

## RSFKDLLKK [reference compound]
[1]; pH 6.2
  EZ50kD (pH 6.2): 0.6092
[2]
  ELISA450nm: 1.682

## SLLDYVRE [CS1008]
[1]
  EZ_mean: -0.06325
[2]
  EASY_mean: -0.02238

## SLLDYVREHKD [CS1038]
[1]
  EZ_mean: -0.03388
[2]
  EASY_mean: -0.01097
